Legend:
[1] = tested on: pulmonary artery endothelial cells; assay: Phalloidin staining of cytoskeleton change in EndMT-induced pulmonary artery endothelial cells; assay type: cell-based, human; conditions: TGF-β2, IL-1β and (R)-PFI-2; FIG. 9C
Protocol: PAECs and Lenti-X-293T were immobilized with 4% formaldehyde and washed with 1×PBS. Thereafter, the cells were permeabilized with 0.2% Triton X-100 and blocked with 1% BSA dissolved in 1×PBS for 1 hour at room temperature. The cells were reacted with the following primary antibodies at 4° C. overnight: anti-VE-cadherin (Cell Signaling, 2500S, 1:100), anti-Fibronectin (BD Pharmigen, 61007, 1:100), anti-TAGLN (Abcam, ab14106, 1:200), anti-α-SMA conjugated with Cy3 (Sigma Aldrich, C6198, 1:200), anti-NF-κB p65 (Cell signaling, 8242S, 1:400), anti-SET7/9 (LsBio, C337450, 1:100), and rhodamine phalloidin (Sigma Aldrich, 1:1,000). Secondary antibodies of donkey anti-goat Alexa Fluor 488 and donkey anti-goat Alexa Fluor 568 (Invitrogen, 1:400) were reacted at room temperature for 1 hour. In order to obtain immunostaining images, a confocal microscope equipped with a 60× objective lens (Zeiss LSM-700) was used.
In order to confirm the inhibitory effect of the drug on endothelial-mesenchymal transition, a model in which pulmonary artery endothelial cells were simultaneously treated with cyproheptadine along with TGF-β2 and IL-1β for 5 to 7 days was used. […]

[2] = tested on: pulmonary artery endothelial cells; assay: EndMT marker expression (Western blot, qRT-PCR) in pulmonary artery endothelial cells treated with TGF-β2 and IL-1β; assay type: cell-based, human; conditions: PAECs treated simultaneously with TGF-β2, IL-1β and (R)-PFI-2
Protocol: Pulmonary arterial ECs (PAECs) and human umbilical vein ECs (HUVECs) were cultured in EGM-2 (Lonza) to which MycoZap (Lonza) and 1% penicillin-streptomycin (Welgene) were added. Human Microvascular ECs (HMVECs) were cultured in EGM-2-MV (Lonza), and Lenti-λ-293T and MCF7 cells were cultured in Dulbecco's modified Eagle medium (DMEM) (HyClone) containing 10% fetal bovine serum (FBS, HyClone), 1% penicillin-streptomycin (Welgene), and MycoZap (Lonza). All cell lines were cultured at 37° C. in a 5% CO2 incubator and cultured at 90% density.
TGF-β2 was purchased from Peprotech and dissolved in pure water containing 0.1% bovine serum albumin (BSA). IL-1β was purchased from R&D System and dissolved in 1×PBS containing 0.1% BSA. […]
In order to isolate the total RNA, miRNeasy RNA isolation kit (QIAGEN) was used. The purified RNA was reverse transcribed using qPCRBIO cDNA Synthesis Kit (PCR-BIOSYSTEMS), and real-time quantitative PCR (qRT-PCR) was performed using qPCRBIO SyGreen Mix Hi-ROX (PCR-BIOSYSTEMS) according to the manufacturer's instructions. […]
All cells were lysed in radioimmunoprecipitation assay (RIPA) buffer (Biosesang) containing protease (GenDepot) and phosphatase (Sigma Aldrich) inhibitors for 20 minutes. […] A protein concentration was measured using Pierce BCA Protein Assay Kit (Thermo Scientific), and Laemmli SDS Sample Buffer was added to an equal amount of protein and boiled. […]

PAECs [3] = assay: Dil-Ac-LDL uptake assay; assay type: cell-based, human; conditions: TGF-β2, IL-1β and (R)-PFI-2; FIG. 9E
Protocol: PAECs were seeded at 2×10^5 cells per well in a 12-well plate. After a drug treatment, the cells were reacted with Dil-Ac-LDL (Invitrogen, 10 μg/ml) at 37° C. for 3 hours. After the reaction, the cells were washed four times with 1×PBS and then subjected to image analysis with a fluorescence microscope.

[4] = tested on: SuHx-induced pulmonary arterial hypertension rats; assay: SuHx-induced pulmonary arterial hypertension animal model; assay type: in vivo, rat; conditions: subcutaneously 10 mg/kg for 3 weeks
Protocol: 8-Week-old male Sprague Dawley rats (specific-pathogen-free grade form SaeronBio, Republic of Korea) were used for the PAH rat model.
Semaxanib (DC Chemicals, SU5416) dissolved in DMSO and then suspended in a buffer (0.5% sodium carboxymethylcellulose, 0.5% sodium chloride, 0.4% Tween-80, and 0.9% benzyl alcohol that were dissolved in deionized water) was injected subcutaneously into the rats at 20 mg/kg. The rats were exposed to 10% 02 hypoxic conditions for 3 weeks. After the rats were restored to normoxic conditions, Cyproheptadine (Cayman) or (R)-PFI-2 (DC Chemicals) was administered. Cyproheptadine was administered intraperitoneally every day at 5 mg/kg for 2 weeks, and (R)-PFI-2 was administered subcutaneously every 2 days at 10 mg/kg for 3 weeks. A right ventricular systolic pressure (RVSP) was measured, and the rats were sacrificed.
Proteins were separated by sodium dodecyl sulfate polyacrylamide gel electrophoresis (SDS-PAGE) and transferred to a polyvinylidene difluoride membrane (Millipore). After blocking the membrane with 3% BSA dissolved in 0.2% PBS with Tween® detergent (PBST), the proteins on the membrane were reacted with the primary antibodies listed in Table 2 overnight. For immunodetection, HRP-conjugated secondary antibodies (1:4,000) were conjugated with the primary antibodies at room temperature for 1 hour (average temperature of 22° C.), and then detected using an enhanced chemiluminescence detection system (Thermo Scientific). In order to separate cytoplasmic and nuclear proteins, EpiQuik Nuclear Extraction Kit (EpiGentek) was used according to the manufacturer's instructions. Protein extracts from animal lung tissue were homogenized in RIPA buffer for 3 minutes at a frequency of 25 Hz.
The harvested animal lung tissue was embedded in paraffin blocks and cut into […] sections. The paraffin sections were deparaffinized using Histoclear for 10 minutes. In order to hydrate the sections, ethanol dissolved in pure water was used according to a concentration gradient (100%, 90%, 70%, 50%, 30%, and 0%). The tissue slides were placed in Borg Decloaker RTU antigen retrieval solution (Biocare Medical) and the sections were heated using a pressure cooker to recover antigens. When the temperature of the recovery solution was lowered, the sections were washed three times with 1×PBS for 5 minutes each, and then blocked with a blocking buffer (1% BSA and 5% goat serum dissolved in 1×PBS) at room temperature for 30 minutes. The sections were reacted with the primary antibodies at 4° C. overnight. Anti-vWF conjugated with FITC (Abcam, ab8822, 1:50), anti-α-SMA conjugated with Cy3 (Sigma Aldrich, C6198, 1:100), anti-SM22a (Abcam, ab14106, 1:130), and anti-SET7/9 (LsBio, C337450, 1:50) were used. For fluorescent staining, the sections were reacted with the secondary antibodies such as donkey anti-goat Alexa Fluor 568 (Invitrogen, 1:150 to 1:400), Goat anti-Rabbit Alexa Fluor 647 (Invitrogen, 1:150), and donkey anti-goat Alexa Fluor 568 (Invitrogen, 1:400) at room temperature for 1 hour. For color staining, after the sections were reacted with the primary antibodies overnight, the sections were reacted with Goat anti-Mouse IgG Secondary Antibody, HRP (Pierce, 1:100) for 1 hour and subjected to a color reaction using DAB staining kit (Vector, SK-4800). Hematoxylin-eosin staining was performed using staining products available from Vector. Image analysis was performed using confocal microscopes equipped with a 40× objective available from Zeiss and Leica. The co-localization effect was verified through Mander's overlap coefficient (MOC). […]
In order to confirm the effect of (R)-PFI-2 in an animal model, (R)-PFI-2 was administered subcutaneously to SuHx-induced pulmonary arterial hypertension rats at a concentration of 10 mg/kg for 3 weeks. […]

PAECs [5] = assay: Dextran permeation assay; assay type: cell-based, human; conditions: TGF-β2, IL-1β and (R)-PFI-2; FIG. 9D
Protocol: PAECs were seeded at 2×10^5 cells per well in a 24-well plate equipped with a cell culture inlet (SPL, 0.4 μm). After a drug treatment, the insert was transferred to a well containing a serum-free medium (SFM), the medium in the insert was replaced with SFM containing FITC-dextran (Sigma Aldrich, FD40S, 1 mg/ml). After 10 minutes and 1 hour, a part of SFM was taken out from the plate well where dextran permeation occurred, and the fluorescence was measured. The fluorescence intensity was measured on a microplate reader (excitation, 485 nm; emission, 530 nm).

SET7/9 = target: T1, SET7/9 (Homo sapiens, UniProt Q8WTS6); conditions: acts by attaching to the substrate peptide binding groove of SET7/9; cited from earlier work
T1 sequence (Q8WTS6 1-366): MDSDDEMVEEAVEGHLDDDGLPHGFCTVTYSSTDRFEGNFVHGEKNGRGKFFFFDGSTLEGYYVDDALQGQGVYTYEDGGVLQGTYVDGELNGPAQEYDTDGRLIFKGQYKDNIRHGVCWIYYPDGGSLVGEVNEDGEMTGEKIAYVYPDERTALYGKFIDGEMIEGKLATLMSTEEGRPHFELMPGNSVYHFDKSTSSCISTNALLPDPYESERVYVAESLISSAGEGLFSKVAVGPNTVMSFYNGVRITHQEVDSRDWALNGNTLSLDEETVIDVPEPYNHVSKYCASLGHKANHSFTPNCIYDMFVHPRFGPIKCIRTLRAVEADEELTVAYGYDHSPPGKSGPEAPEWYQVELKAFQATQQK

O=C([C@@H](Cc1cccc(C(F)(F)F)c1)NS(=O)(=O)c1cc(F)c2c(c1)CCNC2)N1CCCC1 [(R)-PFI-2]
change in cytoskeleton (phalloidin staining) [1]: reduced
expression of endothelial cell marker CD31 and mesenchymal cell markers TNC, FN, Calponin, SM22α (Western blot) ([2]; FIG. 9A): restoration
expression of PECAM1 and FN, CDH2, COL3A1 (qRT-PCR) ([2]; FIG. 9B): restoration
Dil-Ac-LDL uptake ability (PAECs [3]): restored
SET7/9 expression in blood vessels ([4]; SuHx rat lung tissue, FIG. 10D): decrease
area where endothelial and mesenchymal cell markers were simultaneously stained (EndMT) ([4]; SuHx rat lung tissue, FIG. 10D): decrease
right ventricular systolic pressure (RVSP mmHg) ([4]; SuHx rats, FIG. 10A): decreased
right ventricle/left ventricle+septum ratio (RV/LV+S %) ([4]; SuHx rats, FIG. 10B): decreased
right ventricle weight (RV mg) ([4]; SuHx rats, FIG. 10C): decreased
muscularization of lung tissue blood vessels (immunohistochemical staining) ([4]; SuHx rats, FIG. 10D): significantly reduced
expression of TGFβR1 in lung tissue ([4]; SuHx rats, FIG. 10F): decreased
expression of mesenchymal cell markers such as Twist and pVIM in lung tissue ([4]; SuHx rats, FIG. 10F): decreased
expression of phosphorylated SMAD2 protein in lung tissue ([4]; SuHx rats, FIG. 10F): significantly decreased
number of blocked or enlarged blood vessels in lung tissue (H&E staining) ([4]; compared to SuHx group, FIG. 10E): reduced
permeability (PAECs [5]): restored
mode of inhibition of SET7/9 (SET7/9): substrate competitive inhibitor

From patent publication US20250154590A1, “USE OF SET7/9 FOR DIAGNOSING AND TREATING ENDMT-RELATED DISEASE” (IBMSOL CO., LTD., priority 2021, published 2025)
